Laboratory results taken from patent publication US20250355005A1, “System and Method for Drug-Related Data Collection and Analysis” (FloBio LLC, priority 2023, published 2025).

Tested on: blood sample (fibrin and platelet accumulation at collagen/tissue factor reaction zone)
Assay: microfluidic flow assay of a blood sample treated with different doses of DOAC, fibrin and platelet fluorescence signal at two temperatures
Type: cell-based, human
Conditions: increasing Rivaroxaban dose, in relation to the HBS control; 37° C. and 21° C.
Text: Fibrin signal decreases as Rivaroxaban (R) dose is increased, in relation to the HBS control, as expected. As temperature increases, fibrin reactions initiate carlier, fibrin and platelet maximum rate of change increases (steeper slope), and fibrin and platelet signals are increased overall at the same point in time. The DOAC drug dose effect seen at higher temperatures follows similar dose behavior seen at lower temperatures. As illustrated in FIGS. 49A-49B, about a two-fold platelet signal increase at 400 s is seen, a substantial increase in maximum rate of change of fluorescence is also seen. […]
The device 100 can allow for up to eight unique conditions to be tested simultaneously. […] Estimated drug level can be determined through comparison to a fully attenuated sample and a fully reversed sample, in comparison to an IC50 drug response curve, linear regression, […] analysis or other statistical methodology. […]
The system can rely on direct fluorescence signals for analysis of the results at the collagen/tissue factor 112. Fresh whole blood (used within minutes of venous draw), AF594 fibrinogen label (fibrinogen from human plasma, Alexa Fluor™ 594 conjugate) and platelet MCA2588A488 label (mouse anti-human CD61, Alexa Fluor™ 488 conjugate) can be added to the device 100 and the direct fluorescence signals can be analyzed. […]

## O=C(NC[C@H]1CN(c2ccc(N3CCOCC3=O)cc2)C(=O)O1)c1ccc(Cl)s1 [Rivaroxaban]
  Fibrin signal: decreases
